These results are taken from patent publication US20060106099A1, “Novel inhibitors of ubiquitin isopeptidases” (priority 2002, published 2006).

The subject of series [1] is ubiquitin isopeptidases. In words: In vitro isopeptidase activity in HCT 116 lysates, Ub-PEST. Type of series: biochemical, human. The conditions noted are these: 2-200 μM, 45 min. The method, then:
(§1) Isopeptidase Assay. It was hypothesized that the punaglandins would inhibit ubiquitin-isopeptidase activity of the proteasome pathway as does the prostaglandin, Δ^12-PGJ2 (1), but with greater potency because of the chlorinated C-10. To validate this theory, cellular isopeptidase enzymatic activity was measured in vitro after treatment with individual punaglandins, PNG 2 (6), PNG 3 (7), and Z-PNG 4 (9) and in vivo after individual treatment with PNG 4 (8) and PNG 6 (10). This activity was determined utilizing the simple isopeptidase substrate, ubiquitin-PEST (Ub-PEST), a full/length ubiquitin (Ub) molecule fused with an 18-amino acid C-terminal peptide extension that most isopeptidases use as a substrate. The polypeptide extension contains regions rich in Pro (P), Glu (E), Ser (S), and Thr (T) residues called PEST motifs that are responsible for rapid degradation of these and other unstable proteins. Ub isopeptidases specifically cleave this peptide extension, yielding free, full-length Ub. Both the fused Ub-PEST (10.5 kDa) and the cleaved, free Ub (8.5 kDa) can be observed via immunochemical detection.
In Vitro Isopeptidase Activity. PNG 2 (6), PNG 3 (7), and Z-PNG 4 (9) were initially analyzed for isopeptidase activity in vitro in HCT 116 lysates. Cells were lysed with isopeptidase activity buffer and protein concentration adjusted to 0.3 mg/mL per sample. Each sample was subsequently incubated with 2 μM, 6 μM, 20 μM, 60 μM, or 200 μM of PNG 2 (6), PNG 3 (7), Z-PNG 4 (9), Δ^12-PGJ2 (1), and PGA1 (2) in addition to 50 μg/ml of Ub-PEST. Negative control cells were treated with vehicle (0.5% DMSO) and equivalent Ub-PEST. […] The amount of fused Ub-PEST and free Ub product was determined by SDS-PAGE fractionation.

In series [2] the test system is HCT 116 +/+ cells. The following applies: Mullally et al., University of Utah, 2003; read-out: EC50 in competent HCT 116 cells; cited from earlier work.
A further series concerns isopeptidase. The conditions noted are these: cited from earlier work.
Series [3] relates to RKO cells. In words: MTT cell viability assay, RKO cells. On the technique in general: Tetrazolium assays rely on reduction of a dye to a coloured formazan, in cell work by metabolically active cells.
Description: (§6) Cell viability was measured with MTT reagent as described in materials and methods.
(§7) Cell viability was detected by the MTT assay. Briefly, 1×10^5 cells were incubated per well of a sterile, 96-well assay plate with 0-60 μM of test compounds for 48 hours. MTT reagent was added to each well, final concentration of 0.5 mg/mL, and incubated for an additional 3 hours. The media was aspirated and remaining MTT reagent from each well and added 100 μL of HCl:isopropanol (1:24). The absorbance of each sample was measured at 405 nm.
In series [4] the test system is ubiquitin isopeptidases. In words: Ubiquitin isopeptidase activity, Ub-PEST substrate, lysates of treated RKO and HCT 116 cells. Type of series: cell-based, human. The following applies: cells treated 6, 20 or 60 μM, 12 h. The essentials: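 RKO and HCT 116 cells (6×10^5) were treated with 0–60 μM compound for 12 h at 37 °C, then lysed in HEPES/EDTA/CHAPS/5 mM ATP, pH 7.5. Lysates at 0.3 mg/mL protein were incubated with 50 μg/mL Ub-PEST for 45 min at 25 °C. Released 8.5 kDa ubiquitin was quantified by anti-ubiquitin western blot densitometry relative to vehicle (100%).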

Series [5] relates to ubiquitin isopeptidases. The series is described as follows: Ubiquitin isopeptidase activity, z-LRGG-AMC substrate, lysates of treated RKO and HCT 116 cells. The format is cell-based, human. The following applies: cells treated 6, 20 or 60 μM, 12 h. The essentials: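 RKO and HCT 116 cells were treated 12 h at 37° C with 6, 20 or 60 μM compound. Lysates at 0.5 mg/mL were pre-incubated with 30 μM MG115 (30 min, 4° C) to block proteasome, then given z-LRGG-AMC for 3 h at 37° C. Cleaved AMC was read fluorometrically.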

The subject of series [6] is polyubiquitin conjugates in RKO-E6 cells. The series is described as follows: Accumulation of polyubiquitin in RKO-E6 cells (immunoblot). The format is cell-based, human. The following applies: EC80 or 60 μM, 6-24 h. A digest of the protocol:
(§2)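 RKO-E6 cells exposed at 37° C for 6, 12 or 24 h to compound concentrations giving 80% cell death at 48 h; for p53, RKO and RKO-E6 cells treated 6 h. Lysates (12.5 μg protein) immunoblotted for ubiquitin or p53 with ECL detection; p53 quantified by densitometry as RKO-E6/RKO ratio.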
(In general: In western blotting, separated proteins are transferred to a membrane and probed.)

Series [7] concerns p53. In words: p53 accumulation, ratio RKO-E6 cells/RKO cells (immunoblot, densitometry). The following applies: 6 h; etoposide 50 μM, MG115, NSC-302979, DBA 20 μM, others 60 μM. The format is cell-based, human. A digest of the protocol: as §2
Series [8] deals with RKO cells.
Description: as §6, §7
Series [9] deals with HCT 116 +/+ cells.
Description: as §6, §7
For series [10], the system named is HCT 116 +/+ cells. In words: MTT cell viability assay, HCT 116 p53 +/+ cells. The following applies: 48 h, MTT, isogenic pair.
Description: as §6, §7
For series [11], the system named is ubiquitin isopeptidases. In words: In vivo isopeptidase activity after treatment of RKO cells, Ub-PEST. The format is cell-based, human. The method, then:
as §1
In vivo Isopeptidase Activity. To investigate whether punaglandins can inhibit isopeptidase activity in vivo, isopeptidase activity was analyzed after punaglandin treatment of RKO cells. PNG 4 (8) and PNG 6 (10) were selected for in vivo investigation because they differ only in enone functionality, where (8) is a dienone and (10) an enone. RKO cells were incubated with 1 μM, 4 μM, or 7 μM of PNG 4 (8) and PNG 6 (10). […] As a positive control, cells were treated with a known isopeptidase inhibitor, shikoccin (SK). After 6 h drug treatment, cells were lysed and protein concentration adjusted to 0.3 mg/mL per sample. Each sample was subsequently incubated with 50 μg/mL of Ub-PEST. The reaction was terminated after 20 min and the respective amounts of Ub-PEST (10 kDa) and free Ub product (8.5 kDa) were determined by SDS-PAGE fractionation.

For series [12], the system named is p53. In words: p53 accumulation ratio in RKO-E6 and RKO cells, punaglandin study. The conditions noted are these: 7 μM, 6 h. Type of series: cell-based, human. The method, then: To determine if punaglandins inhibit p53 degradation by disrupting the proteasome pathway, the accumulation ratio of p53 was determined in RKO and RKO-E6 cells treated with selected punaglandins, PNG 4 (8) and PNG 6 (10). Equally seeded RKO and RKO-E6 cells were treated with vehicle (0.5% DMSO), 50 μM Etoposide, 60 μM PGA2 (3), 7 μM PNG 6 (10), and 7 μM PNG 4 (8). After 6 h incubation with vehicle or drug, cells were lysed and harvester. […] of protein from each lysate was fractionated by SDS-PAGE and probed for p53 protein. The p53 band intensities were then analyzed and quantitated using densitometry. The ratio of p53 in RKO-E6 to RKO cells was calculated by dividing the amount of p53 in RKO-E6 cells by the amount in RKO cells and multiplying by 100 to give percent

For the next series, the system named is caspase-3. The series is described as follows: Caspase-3 activity in RKO cells (DEVD-AMC). The format is cell-based, human. The conditions noted are these: PNG 4 0.5 μM, PNG 6 1 μM, Taxol 1 μM. The method, then: To determine if selected punaglandins, PNG 4 (8) and PNG 6 (10) also induce apoptosis in RKO cells in a time dependent manner, caspase-3 activity was determined. During apoptosis the caspases, a family of cysteinyl aspartate-specific proteases, are activated. These enzymes cleave specific substrates resulting in biochemical and morphological changes associated with apoptosis. Therefore, detection of activated caspases can be used as a biochemical marker for apoptosis. Caspase-3 has substrate specificity for the amino acid sequence Asp-Glu-Val-Asp (DEVD), cleaving after Asp, and therefore caspase activity can be measured by monitoring cleavage of the substrate DEVD-AMC (Asp-Glu-Val-Asp-7-amino-4-[…]).
RKO cells were treated for 4, 8, and 12 h with PNG 4 (8) at 0.5 μM and PNG 6 (10) at 1 μM. Taxol, a known apoptotic inducer at 1 μM, was used as a positive control, and negative control cells were treated with vehicle (0.5% DMSO). Caspase-3 activity rose steadily as expected from 4-12 h in cells treated with PNG 4 (8), PNG 6 (10), and Taxol but remained constant in the untreated control cells.

The next series relates to HCT 116 (p53 wt). In words: MTS cytotoxicity, HCT 116 (p53 wt). The format is cell-based. The conditions noted are these: Homo sapiens, 48 h. The text has this:
(§3) Cytotoxicity in Human Colon Tumor (HCT) Cell Lines. To determine if punaglandins elicit cytotoxicity independently of the tumor-suppressor p53, as do other dienone prostaglandins, several cytotoxicity assays were employed. First, cell death effects of all isolated punaglandins were investigated in pairs of isogenic colon cancer cell lines, the HCT 116^+/+ competent cell line and HCT 116^−/− null cell lines. HCT 116^+/+ cells are homozygous for p53^+/+ and p21^+/+; where as, HCT 116^−/− cells lack both alleles for p53 (p53^−/−) or p21 (p21^−/−).
(§4) Each cell line was seeded simultaneously in 96-well plates and incubated for 24 h before treatment with individual punaglandins at various concentrations for 48 additional h. Cytotoxicity was determined using MTS and absorbances were recorded at 490 nm. Half maximal effective concentrations (EC50) and Log EC50s were calculated from a concentration-response curve generated using GraphPad Prism (Table 1).

The next series concerns HCT 116 (p53^−/−). In words: MTS cytotoxicity, HCT 116 (p53−/−). Type of series: cell-based. The following applies: Homo sapiens, log of EC50 in μM, 48 h, read-out: Log EC50 +/− Standard Error of Log EC50, HCT 116 (p53−/−) (converted).
Excerpt: as §3, §4

For the next series, the system named is HCT 116 (p21 wt). In words: MTS cytotoxicity, HCT 116 (p21 wt). The format is cell-based. The following applies: Homo sapiens, log of EC50 in μM, 48 h, read-out: Log EC50 +/− Standard Error of Log EC50, HCT 116 (p21 wt) (converted).
Excerpt: as §3, §4

The subject of a further series is HCT 116 (p21^−/−). In words: MTS cytotoxicity, HCT 116 (p21−/−). The format is cell-based. The conditions noted are these: Homo sapiens, log of EC50 in μM, 48 h, read-out: Log EC50 +/− Standard Error of Log EC50, HCT 116 (p21−/−) (converted).
Excerpt: as §3, §4

For the next series, the system named is RKO. The series is described as follows: MTS cytotoxicity, RKO cells. The format is cell-based. The following applies: Homo sapiens, 48 h. The method, then: (§5) Cytotoxicity in Human Colon Tumor (RKO) Cell Lines. Punaglandins (8) and (10) were also assayed for p53-independent cytotoxicity in RKO and RKO-E6 cells. Each cell line was seeded simultaneously in 96-well plates and incubated for 24 h before treatment with PNG 4 (8) and PNG 6 (10) at various concentrations for 48 h. Cytotoxicity was determined using MTS and absorbances were recorded at 490 nm. Log EC50s and EC50s were calculated from a concentration-response curve generated using GraphPad Prism (Table 2).

For another series, the system named is RKO-E6. In words: MTS cytotoxicity, RKO-E6 cells. The format is cell-based. The following applies: Homo sapiens, RKOE6, log of EC50 in μM, 48 h, read-out: Log EC50 +/− Standard Error of Log EC50, RKO-E6 (converted). The method, then: as §5

SMILES strings stand for the structures. Like-named read-outs stand apart in the source and are kept apart here.

Description for HCT 116 −/− cells: as §6, §7

For `CCCCC[C@H](O)/C=C/[C@H]1C=CC(=O)[C@@H]1CCCCCCC(=O)O` [PGA1], the “inhibition of Ub-PEST degradation in HCT 116 lysates” value in the series with ubiquitin isopeptidases [1] is recorded as “no detectable inhibition”. Further, the EC50 is 11600 nM with HCT 116 +/+ cells [2] and 33600 nM in the series on RKO cells [3] (read-out: EC50 in RKO cell lines, prostaglandins for comparison, comparison values in the text). Further, the “isopeptidase inhibition relative to Δ12-PGJ2” value in the series on isopeptidase was “significantly less potent”.
`CCCCC[C@H](O)/C=C/C1=C(CCCCCCC(=O)O)C(=O)CC1` [PGB1]: in the series with ubiquitin isopeptidases [4], the “inhibition of isopeptidase cleavage of Ub-PEST” value is recorded as “did not inhibit isopeptidase activity”. In addition, the “inhibition of z-LRGG-AMC hydrolysis by ubiquitin isopeptidases” value in the series on ubiquitin isopeptidases [5] was “did not”. In addition, the “cellular accumulation of polyubiquitin conjugates” value in series [6] is recorded as “did not cause appreciable cellular accumulation of ubiquitin conjugates”. Besides, the “ratio of p53 protein [RKO-E6 cells/RKO cells]” value in the series on p53 [7] was “significantly less than unity”. The EC50 in the series with RKO cells [8], in the series on RKO-E6 cells, with HCT 116 +/+ cells [9] and in the series on HCT 116 −/− cells was > 60000 nM in each case. The “isopeptidase inhibition relative to Δ12-PGJ2” value in the series on isopeptidase is “inactive”. The “cell death in RKO compared with RKO-E6 cells” value with RKO cells [3] (48 h, MTT, isogenic pair) is “did not cause significant cell death”. Moreover, the “cell death in HCT 116 +/+ compared with HCT 116 −/− cells” value in the series with HCT 116 +/+ cells [10] is listed as “did not cause significant cell death”.
With `CCCCC/C=C\C[C@@]1(O)C=C(Cl)C(=O)/C1=C/[C@H](OC(C)=O)[C@H](CCCC(=O)OC)OC(C)=O` [PNG 4], the “Ub-Pest degradation, % of the control (densitometry)” value in the series on ubiquitin isopeptidases [11] (7 μM, 6 h) is recorded as 67%. The “concentration of noticeable inhibition of Ub-PEST degradation” value in the series with ubiquitin isopeptidases [11] (6 h treatment) came out at 7 µM. In the series with p53 [12], the “accumulation of p53 in RKO and RKO-E6 cells” value was “showed enhanced accumulation of p53”. In the series with caspase-3, the “Caspase-3 activity from 4-12 h” value is “rose steadily”. Moreover, the EC50 was ~0.35 µM in the series with HCT 116 (p53 wt) (average over the three compounds, read-out: average EC50 of PNG 3, PNG 4 and PNG 6, cytotoxicity in HCT 116 cell lines); 0.331 µM in the series with HCT 116 (p53 wt) (log of EC50 in μM, read-out: Log EC50 +/− Standard Error of Log EC50, HCT 116 (p53 wt) (converted)); 0.355 µM with HCT 116 (p53^−/−); 0.339 µM with HCT 116 (p21 wt); 0.282 µM in the series with HCT 116 (p21^−/−); 0.31 µM with RKO (read-out: EC50 in RKO cell lines, punaglandins). Also, the EC50 was 0.309 µM in the series with RKO (log of EC50 in μM, read-out: Log EC50 +/− Standard Error of Log EC50, RKO (converted)) and 0.372 µM with RKO-E6.
